The source of these data is paper PMC3935398 (2014).

Each structure is given as a SMILES string.

The experiment has as its system Streptococcus mutans (Smu) THF riboswitch aptamer (RNA, riboswitch) GGAGAGUAGAUGAUUCGCGUUAAGUGUGUGUGAAUGGGAUGUCGUCACACAACGAAGCGAGAGCGCGGUGAAUCAUUGCAUCCGCUCCA
In words: ITC. Particulars: 70 mM NaCl, 2.5 mM MgCl2, 70 mM Na-HEPES pH 8.0, 1 mM DTT, 37 °C.

As usually defined, the KD is the free concentration of one partner at which half of the binding sites on the other are occupied at equilibrium, for simple one-to-one binding. Higher therefore signals lower affinity. In turn, `Nc1nc2c(N)ncnc2[nH]1` returned a KD of 160 ± 20 µM.

`Nc1ncc2[nH]cnc2n1`: the dissociation constant (KD) amounted to 26 ± 3 µM.

As to `Nc1nc(N)c2[nH]cnc2n1`, the dissociation constant KD (PK site only) turned out to be 0.5 ± 0.1 µM.

In the case of `Nc1ncnc2[nH]cnc12`, the KD amounted to 8 ± 1 µM.
